Experiments:
E0771 tumors [1] = assay: Immune cells infiltrated into E0771 tumors (wild type, sh control, sh LXR) after DDA, flow cytometry; type: in vivo, mouse
E0771 tumors [2] = assay: E0771 tumor growth analysis in C57BL/6 mice treated with DDA; type: in vivo, mouse; conditions: 0.37 μg/kg or 20 mg/kg DDA IP every 5 days
Method: FIGS. 4A-C. Tumor growth analysis (A) Exponentially growing E0771 cells were collected, washed twice in PBS and resuspended in PBS (300,000 cells in 100 μl PBS). E0771 tumors were prepared by subcutaneous transplantation into the flanks of C57BL/6 mice. When tumor measured 50 mm3, the mice were treated every 5 days with 0.37 μg/kg or 20 mg/kg DDA or with the solvent vehicle (control).

[3] = system: Bone marrow of WT or LXRαβKO mice; assay: Bone marrow dendritic cell differentiation (GM-CSF) from WT or LXRαβKO mice in presence of DDA; type: cell-based, mouse
Method: FIGS. 11A-B. Bone marrow was isolated from the tibia and femur of WT or LXRαβKO mice and cultivated with 20 ng/ml GM-CSF and in presence of increasing concentrations of DDA. At day 3 and 5 half of medium was replaced by fresh medium containing GM-CSF. After 7 days of culture, the percentage of (A) differentiated CD11c+CD8a dendritic cell (B) mature CD11c+CD8a+ dendritic cells (CD11c+CD8a+CD86hi CCR7hi) was measured by flow cytometry and expressed relative to the control.
FIG. 12. Bone marrow was isolated from the tibia and femur of WT or LXRαβKO mice and cultivated with 20 ng/ml GM-CSF and in presence of increasing concentrations of DDA. At day 3 and 5 half of medium was replaced by fresh medium containing GM-CSF. After 7 days of culture, the mean of florescence (MFI) of MHC class II expressed on the surface of CD11c dendritic cells: CD11c+H2db+ was measured by flow cytometry and expressed relative to the control.

B16F10 cells = assay: Multivesicular bodies and exosome secretion of B16F10 cells treated with DDA; type: cell-based, mouse
[4] = system: E0771 sh control or E0771 sh LXR tumors; assay: Tumor growth and survival, E0771 sh control or E0771 sh LXR tumors, DDA treatment; type: in vivo, mouse
Method: FIGS. 13A-B. Tumor growth analysis (A) Exponentially growing E0771 sh control or E0771 sh LXR cells were collected, washed twice in PBS and resuspended in PBS (300,000 cells in 100 μl PBS). […] mice were grafted subcutaneously with 300 000 E0771 sh control or E0771 sh LXR tumor cells. […] At day 15 of treatment with DDA or the solvent vehicle, the tumors were removed and the immune cells infiltrated into the tumors were analyzed by flow cytometry (see FIG. 14).
FIGS. 16A-C. The control of tumor growth and the increase in animal survival upon DDA treatment are dependent on the LXRβ expressed in tumor cells. […] The animals were monitored over time for (A) tumor growth and (B) animal survival. (C) Tumor weights were measured at the end of the experiment.

[5] = WT, 7 days of culture (FIG. 11)
[6] = E0771 expressing LXRβ, 0.37 μg/kg DDA IP every two days (FIG. 16)

For `CC(C)CCCC(C)[C@H]1CCC2C3C[C@@H](NCCc4cnc[nH]4)[C@@]4(O)C[C@@H](O)CC[C@]4(C)C3CC[C@@]21C` (stereo partly drawn) [DDA, 5a-hydroxy-6b-[2-(1H-imidazol-4-yl)ethylamino]cholestan-3b-ol], which “number of macrophages M2 infiltrated into the tumors” value (E0771 tumors [1]; 0.37 μg/kg DDA (FIG. 18)) is on record?
Its value is “decreases”.

And the “number of MDSC infiltrated into the tumor” value (E0771 tumors [1]; 0.37 μg/kg DDA (FIG. 19))?
The value was “decreases”.

What about the “ratio of dendritic cells CD11+ CD8α+ versus MDSC” value (E0771 tumors [1]; 0.37 μg/kg DDA (FIG. 19)) of the same molecule?
The value was “increases”.

And the “LXRβ dependence of effect on macrophages M1” value (E0771 tumors [1]; shLXRβ vs LXRβ expressing tumors (FIG. 18))?
Its value is “dependent of the LXRβ”.

What about the “effects on MDSC and dendritic cells/MDSC ratio” value (E0771 tumors [1]; tumors knocked-down for the LXRβ (FIG. 19)) of the same molecule?
The value was “abolished”.

And the mice survival (E0771 tumors [2])?
Its mice survival is “increases mice survival”.

What about the tumor growth (E0771 tumors [2]) of the same molecule?
The tumor growth was “inhibits tumor growth”.

And the “MHC II expression at the surface of CD11c dendritic cells” value ([3]; 1 μM DDA, WT (FIG. 12))?
The value was “increases”.

And the “differentiation of CD11c into CD11c CD8a+ dendritic cells” value [3, 5]?
The value was “increases”.

What about the “maturation of CD11c CD8a+ dendritic cells (CD86hi CCR7hi)” value [3, 5] of the same molecule?
Its value is “increases”.

What about the “effect on MHC II expression at the surface of CD11c dendritic cells” value ([3]; in absence of LXR (LXRαβKO)) of the same molecule?
Its value is “abrogated”.

What about the “effect on differentiation and maturation of CD11c CD8a+ dendritic cells” value ([3]; in absence of LXR (LXRαβKO)) of the same molecule?
Its value is “abolished”.

And the “production of exosome secreted into the media” value (B16F10 cells; data not shown)?
The value was 1.5 to 2 fold.

And the “amount of multivesicular bodies (MVB)” value (B16F10 cells; electronic microscopy)?
The value was “stimulates”.

And the animal survival [4, 6]?
Its animal survival is “increases animal survival”.

What about the tumor growth [4, 6] of the same molecule?
Its tumor growth is “inhibits tumor growth”.

What about the “effect on growth of tumors” value ([4]; E0771 sh LXR, 0.37 μg/kg DDA every 2 days (FIG. 13)) of the same molecule?
The value was “abolished”.

What about the growth of tumors ([4]; E0771 sh control, 0.37 μg/kg DDA every 2 days (FIG. 13)) of the same molecule?
Its growth of tumors is “significantly controls the growth”.

From patent publication US20230138400A1, “METHODS AND PHARMACEUTICAL COMPOSITIONS FOR REPROGRAMING IMMUNE ENVIRONMENT IN A SUBJECT IN NEED THEREOF” (INSERM (INSTITUT NATIONAL DE LA SANTE ET DE LA RECHERCHE …, priority 2016, published 2023)
